Assay results from patent US11718633B2, “Indole compounds, process for the preparation and use thereof” (priority 2018, dated 2023).
≈ marks a conversion by molar mass, not a printed value.

Columns and labels:
[1] = test system: drug-sensitive Mycobacterium tuberculosis strains; conditions: drug-sensitive M. tuberculosis; cited from earlier work
[2] = test system: TB aerosol lung infection model; conditions: in vivo; cited from earlier work
Mtb. H37Rv = test: Antibacterial susceptibility testing, broth microdilution MIC; type: cell-based, Mycobacterium tuberculosis; conditions: M. tuberculosis H37Rv ATCC 27294, 7 days, 37° C., no visible growth; for MIC: Mycobacterium tuberculosis, ATCC 27294 / H37Rv, 168 h, read-out: MIC against mycobacterium tuberculosis Mtb. H37Rv
[3] = In vitro solubility in buffer at different pH (HPLC); conditions: for solubility at 5 min: kinetic from dmso stock
physchem = conditions: kinetic from dmso stock
[4] = pH 1.2, simulated gastric fluid

C[C@@H]1[C@H]2C[C@@H](C[C@H]1NC(=O)c1cc3c(F)cc(F)cc3[nH]1)C2(C)C [4,6-difluoro-N-((1R,2R,3R,5S)-2,6,6-trimethylbicyclo[3.1.1]heptan-3-yl)-1H-indole-2-carboxamide]
MIC [1]: 0.012 µM (≈ 0.00399 µg/mL) | SI [1]: ≥ 16000 | activity in the TB aerosol lung infection model (in words) [2]: excellent activity

CC1(C)CCC(NC(=O)c2cc3ccccc3[nH]2)CC1 [Compound (a), N-(4,4-dimethylcyclohexyl)-1H-indole-2-carboxamide]
MIC (Mtb. H37Rv): 0.06 µg/mL (≈ 0.222 µM)

C[Si]1(C)CCC(NC(=O)c2cc3ccccc3[nH]2)CC1 [Compound (b), N-(1,1-dimethylsilinan-4-yl)-1H-indole-2-carboxamide]
MIC (Mtb. H37Rv): 0.03 µg/mL (≈ 0.105 µM)

C[Si]1(C)CCN(NC(=O)c2cc3ccccc3[nH]2)CC1 [Compound (c), N-(4,4-dimethyl-1,4-azasilinan-1-yl)-1H-indole-2-carboxamide]
MIC (Mtb. H37Rv): 2 µg/mL (≈ 6.96 µM)

C[Si]1(C)CCN(C(=O)c2cc3ccccc3[nH]2)CC1 [Compound (d), (4,4-dimethyl-1,4-azasilinan-1-yl)(1H-indol-2-yl)methanone]
MIC (Mtb. H37Rv): 32 µg/mL (≈ 117 µM)

C[Si]1(C)CCC(NC(=O)c2cc3c(Cl)cc(Cl)cc3[nH]2)CC1 [Compound (e), 4,6-dichloro-N-(1,1-dimethylsilinan-4-yl)-1H-indole-2-carboxamide]
MIC (Mtb. H37Rv): 0.03 µg/mL (≈ 0.0844 µM)

C[Si]1(C)CCN(NC(=O)c2cc3c(Cl)cc(Cl)cc3[nH]2)CC1 [Compound (f), 4,6-dichloro-N-(4,4-dimethyl-1,4-azasilinan-1-yl)-1H-indole-2-carboxamide]
MIC (Mtb. H37Rv): 0.03 µg/mL (≈ 0.0842 µM) | aqueous solubility at the acidic pH (in words) [3]: good aqueous solubility | solubility at 5 min [3, 4]: 40.4 µM (≈ 14.4 µg/mL) | solubility at 5 min ([3]; pH 2.2, aqueous buffer): 26.3 µM (≈ 9.37 µg/mL) | solubility at 5 min ([3]; pH 4.5, aqueous buffer): 2.57 µM (≈ 0.916 µg/mL) | solubility at 5 min ([3]; pH 7.4, aqueous buffer): 2.57 µM (≈ 0.916 µg/mL) | solubility at 5 min ([3]; pH 10.2, aqueous buffer): 2.7 µM (≈ 0.962 µg/mL)

C[Si]1(C)CCN(C(=O)c2cc3c(Cl)cc(Cl)cc3[nH]2)CC1 [Compound (g), (4,6-dichloro-1H-indol-2-yl)(4,4-dimethyl-1,4-azasilinan-1-yl)methanone]
MIC (Mtb. H37Rv): 16 µg/mL (≈ 46.9 µM)

CC1(C)CCN(NC(=O)c2cc3c(Cl)cc(Cl)cc3[nH]2)CC1 [Compound (h), 4,6-dichloro-N-(4,4-dimethylpiperidin-1-yl)-1H-indole-2-carboxamide]
solubility at 5 min (physchem; [4]): 41.1 µM (≈ 14 µg/mL) | solubility at 5 min (physchem; pH 2.2, aqueous buffer): 30 µM (≈ 10.2 µg/mL) | solubility at 5 min (physchem; pH 4.5, aqueous buffer): 8.6 µM (≈ 2.93 µg/mL) | solubility at 5 min (physchem; pH 7.4, aqueous buffer): 6.32 µM (≈ 2.15 µg/mL) | solubility at 5 min (physchem; pH 10.2, aqueous buffer): 8.67 µM (≈ 2.95 µg/mL)

C[Si]1(C)CCC(NC(=O)c2cc3c(F)cc(F)cc3[nH]2)CC1 [Compound (i), N-(1,1-dimethylsilinan-4-yl)-4,6-difluoro-1H-indole-2-carboxamide]
MIC (Mtb. H37Rv): 0.03 µg/mL (≈ 0.093 µM) | solubility at 5 min ([3]; pH 10.2, aqueous buffer): 9.03 µM (≈ 2.91 µg/mL)

C[Si]1(C)CCN(NC(=O)c2cc3c(F)cc(F)cc3[nH]2)CC1 [Compound (j), N-(4,4-dimethyl-1,4-azasilinan-1-yl)-4,6-difluoro-1H-indole-2-carboxamide]
MIC (Mtb. H37Rv): 0.125 µg/mL (≈ 0.386 µM) | aqueous solubility at the acidic pH (in words) [3]: good aqueous solubility | solubility at 5 min [3, 4]: 49.7 µM (≈ 16.1 µg/mL) | solubility at 5 min ([3]; pH 2.2, aqueous buffer): 31.3 µM (≈ 10.1 µg/mL) | solubility at 5 min ([3]; pH 4.5, aqueous buffer): 1.01 µM (≈ 0.327 µg/mL) | solubility at 5 min ([3]; pH 7.4, aqueous buffer): 1 µM (≈ 0.323 µg/mL) | solubility at 5 min ([3]; pH 10.2, aqueous buffer): 1.1 µM (≈ 0.356 µg/mL)

C[Si]1(C)CCN(C(=O)c2cc3c(F)cc(F)cc3[nH]2)CC1 [Compound (k), (4,6-difluoro-1H-indol-2-yl)(4,4-dimethyl-1,4-azasilinan-1-yl)methanone]
MIC (Mtb. H37Rv): 32 µg/mL (≈ 104 µM)

CC1(C)CCN(NC(=O)c2cc3c(F)cc(F)cc3[nH]2)CC1 [Compound (l), N-(4,4-dimethylpiperidin-1-yl)-4,6-difluoro-1H-indole-2-carboxamide]
solubility at 5 min (physchem; [4]): 49.6 µM (≈ 15.3 µg/mL) | solubility at 5 min (physchem; pH 2.2, aqueous buffer): 46.4 µM (≈ 14.3 µg/mL) | solubility at 5 min (physchem; pH 4.5, aqueous buffer): 17.3 µM (≈ 5.31 µg/mL) | solubility at 5 min (physchem; pH 7.4, aqueous buffer): 29.4 µM (≈ 9.04 µg/mL) | solubility at 5 min (physchem; pH 10.2, aqueous buffer): 21.4 µM (≈ 6.57 µg/mL)

C[Si]1(C)CCN(NC(=O)c2cc3c(Cl)cc(Cl)cc3[nH]2)CC1.Cl [Compound (m), 4,6-dichloro-N-(4,4-dimethyl-1,4-azasilinan-1-yl)-1H-indole-2-carboxamide hydrochloride]
aqueous solubility at the acidic pH (in words) [3]: good aqueous solubility | solubility at 5 min [3, 4]: 38.6 µM | solubility at 5 min ([3]; pH 2.2, aqueous buffer): 28.4 µM | solubility at 5 min ([3]; pH 4.5, aqueous buffer): 2.55 µM | solubility at 5 min ([3]; pH 7.4, aqueous buffer): 2.73 µM | solubility at 5 min ([3]; pH 10.2, aqueous buffer): 2.46 µM

CC1(C)CCN(NC(=O)c2cc3c(Cl)cc(Cl)cc3[nH]2)CC1.Cl [Compound (n), 4,6-dichloro-N-(4,4-dimethylpiperidin-1-yl)-1H-indole-2-carboxamide hydrochloride]
solubility at 5 min (physchem; [4]): 42.6 µM | solubility at 5 min (physchem; pH 2.2, aqueous buffer): 26.2 µM | solubility at 5 min (physchem; pH 4.5, aqueous buffer): 7.24 µM | solubility at 5 min (physchem; pH 7.4, aqueous buffer): 10.6 µM | solubility at 5 min (physchem; pH 10.2, aqueous buffer): 9.89 µM

CC1(C)CCC(NC(=O)c2cc3c(Cl)cc(Cl)cc3[nH]2)CC1 [NITD 304, reference compound]
MIC against mycobacterium tuberculosis Mtb. H37Rv (Mtb. H37Rv): 0.06 µg/mL (≈ 0.177 µM) | Solubility in DMSO (standard solution) ([3]; DMSO @ 10 μM Concentration): Insoluble in DMSO @ 10 μM Concentration.

CC1(C)CCC(NC(=O)c2cc3c(F)cc(F)cc3[nH]2)CC1 [NITD 349, reference compound]
MIC against mycobacterium tuberculosis Mtb. H37Rv (Mtb. H37Rv): 0.03 µg/mL (≈ 0.0979 µM) | Solubility pH 1.2 ([3]; buffer pH 1.2): 0.24 μM | Solubility pH 2.2 ([3]; buffer pH 2.2): 0.29 μM | Solubility pH 4.5 ([3]; buffer pH 4.5): 0.15 μM | Solubility pH 7.4 ([3]; buffer pH 7.4): 0.24 μM | Solubility pH 10.2 ([3]; buffer pH 10.2): 7.30 μM
